# Data taken from a melting point compilation (Tetko et al.; mined from patent text by program, amines drawn as free bases though some values may be those of a salt).
# Residues, ends and D or L forms follow the SMILES beside them. *: point of attachment. Boc = CC(C)(C)OC(=O)*; OBn = c1ccc(CO*)cc1; Bn = c1ccc(C*)cc1
row,SMILES,melting point [°C]
1,C[C@@H](O)Cn1ncc2ccc(O)c([N+](=O)[O-])c21,70 to 74
2,Cc1ccc(NC(=O)c2ccc3oc(-c4c(C)cc(OCC(=O)N(C)C)cc4C)nc3c2)cc1C,207 to 209
3,O=C(O)c1cc2cc([N+](=O)[O-])ccc2[nH]c1=O,> 310
4,CCCCCCCCCCCCCCc1ccc(C(C)=O)c(O)c1,45 to 46
5,CC(C)(O)c1cc(C#N)ccc1O,129 to 130
6,Cc1cc(N)c(I)c(C)n1,103 to 110
7,COc1cc(CNC(=S)NC(COC(=O)C(C)(C)C)Cc2ccc(C)c(C)c2)ccc1O (centres undefined),43 to 48
8,COc1ccc(-c2c(Cl)c(CN3CCCCC3=O)nc3sc4c(c23)CCN(Cc2ccccc2)C4)cc1OC,113 to 114
9,NC(=O)c1cn(-c2ccccc2)nc1-c1ccc([N+](=O)[O-])o1,236 to 238
10,CC1(C)NC(=O)N(c2ccc([N+](=O)[O-])cc2)C1=O,176 to 177
11,CCN(CC)c1ccc(C2(c3ccc(N(C)C)cc3)OC(=O)c3cc(N(C)C)ccc32)c(C)c1 (centres undefined),190 to 195
12,CCCSc1ccc(N)c(C(=O)O)c1,91 to 93
13,CC(C)Cc1cc(-c2cc(C=C3SC(=O)NC3=O)ccc2OC(F)(F)F)c2c(c1)C(C)(C)CO2,142 to 146
14,OC(COc1ccc(-c2cc[nH]n2)cc1)CN1CCN(c2ccc(Cl)cc2)CC1 (centres undefined),211 to 212
15,N#Cc1cc(=O)c2ccc(OCCCCl)cc2o1,124 to 125
16,CC(C)(C)c1ccc2c3c(c(=O)oc2c1)CNCC3,181 to 186
17,COc1ccc(-c2coc3cc(OCC4CO4)ccc3c2=O)cc1OC (centres undefined),161 to 162
18,Cc1ccc(C(=O)Nc2ccccc2N2CCN(Cc3ccc[nH]3)CC2)c(-c2ccc(C(F)(F)F)cc2)c1,196 to 198
19,CC1(C)C=C(c2ccccn2)c2cc(Cl)cc(Cl)c2OC1,124
20,CCOC(=O)Cc1cnn(C)c1O,104 to 105
21,C(=C\c1nc2ccccc2n1-c1ccccn1)/c1ccco1,164 to 165
22,COc1cc(CNC(=O)c2nc3sccc3c(=O)[nH]2)ccc1Br,196 to 198

row,SMILES,melting point [°C]
1,CC(NC(=O)C(Cc1ccc(OCc2ccccc2)cc1)NC(=O)OC(C)(C)C)C(=O)NCC(=O)OCc1ccccc1 (stereo not drawn) (Boc-Tyr(Bn)-Ala-Gly-OBn; configuration not given here),145 to 147
2,COc1ccccc1C(=O)Nc1nc2ccccc2s1,196 to 197
3,CCc1cc(Cl)cc2c1OC(C(F)(F)F)C(C(=O)O)=C2 (centres undefined),197 to 199
4,CCCc1c(OCCCCCCc2ccc(OCCCC(=O)O)cc2/C=C/C(=O)O)ccc2c1OCCC2=O,140 to 143
5,CCOC(=O)/C=C(/c1ccc(CC)cc1)c1cc(Cl)cc(Cl)c1,73 to 75
6,O=C1NN(C(=O)c2ccccc2NCc2ccccc2)Cc2ccccc21,206 to 208
7,COc1cc(Nc2c(C#N)cnc3sc(C)cc23)c(Cl)cc1Cl,179 to 181
8,Brc1cc2nc(NC3=NCCN3)[nH]c2cc1Br,261 to 267
9,COc1cc(Nc2c(C#N)cnc3cc(OS(=O)(=O)C(F)(F)F)c(OC)cc23)c(Cl)cc1Cl,220 to 223
10,c1ccc(COc2ccc(-c3ccc(OCCCN4CCCCC4)cc3)nn2)cc1,138
11,CC(C)N1Cc2c(-n3c(=O)cc(C(F)(F)F)[nH]c3=O)ccc(Cl)c2C1=O,> 250
12,O=C(C(=O)c1cccc(I)c1)c1cccc(I)c1,127
13,CCCCc1oc2ccc([N+](=O)[O-])cc2c1C(=O)c1ccc(OCCCCCN(CCCC)CCCC)cc1,107
14,CCOC(=O)CCc1cc(Cl)c(Cl)cc1C(=O)CCCNC(C)=O,63 to 65
15,COC(=O)c1ccccc1C1=NC(C)(C(C)C)C(=O)N1 (centres undefined),113 to 114
16,Cc1ccc(C2(c3ccc(C)cc3)NC(=O)N(CCCN3CCC(C#N)(c4ccccc4)CC3)C2=O)cc1,157 to 159
17,C=C[C@@H](C[C@H](O)[C@H](CC1CCCCC1)NC(=O)[C@H](Cc1c[nH]cn1)NC(=O)[C@@H](CC(=O)NN)Cc1ccccc1)C(C)C,109
18,O=C(O)CCCCCCCCCCCCO,77 to 78
19,N#Cc1cc(-c2ccccc2)c(=O)n2c1-c1ccccc1CC2,204 to 205
20,O=C(c1ccc(F)cc1)C1CCN(CCn2c(-c3ccccc3)nc3ccccc3c2=O)CC1,144
21,CC(C)(C)[Si](C)(C)OCCn1nc(C=O)cc1C=O,63 to 64
22,CC(C)(C)OC(=O)N1CCc2cc(N)c(N)cc2CC1,147 to 149

row,SMILES,melting point [°C]
1,COc1ccc(-c2cc(C)sc2-c2ccc(OC)cc2)cc1,93 to 97
2,Cc1ncc(CN2CCc3cc(-c4cc(Cl)cc(Cl)c4)ccc3C2)c(N)n1,205 to 211
3,COc1ccc(C2CNC(=O)NC2)cc1OC(F)F,215 to 216
4,O=C1c2ccccc2S(=O)(=O)N1CF,96 to 98
5,O=C1NC(=O)C(Cc2ccc3c(c2)CN(c2ccccn2)CCO3)S1 (centres undefined),180 to 181
6,CC(C)(C)c1cc(CN(c2cccnc2)S(=O)(=O)c2ccc([N+](=O)[O-])cc2)cc(C(C)(C)C)c1O,159 to 160
7,Nc1ccccc1Oc1ccc2c(c1)C(=O)NC2=O,212
8,C=CCCOc1ccc(C[C@H](NC(=O)OC(C)(C)C)C(=O)O)cc1,148 to 150
9,O=C1C(=O)c2ccccc2C2=C1SCC1(CCN(Cc3c(F)cccc3Cl)CC1)O2,90 to 92
10,CCCc1ccc(NC(=O)c2cccnc2NCc2ccc(=O)[nH]c2)cc1C(F)(F)F,220 to 224
11,O=C(O)COc1ccc(CCNS(=O)(=O)c2ccccc2)cc1,157 to 158
12,COC(=O)C(Oc1cccc2ccccc12)c1ccc(Oc2ccc(Cl)cc2)cc1 (centres undefined),107 to 110
13,Cc1nc(NC(=O)c2ccccc2)cn1CCCCC1(C(=O)NCC(F)(F)F)c2ccccc2-c2ccccc21,145 to 147
14,Cc1c(CNCCc2cc3cccc(F)c3n2C)ncn1S(=O)(=O)N(C)C,114 to 116
15,O=c1c(Cl)c(Cl)cnn1CC(Cl)=CCl,93.7 to 94.6
16,CCCCCCCCCCCCCCCCCCOc1ccccc1NC(=O)CC(=O)C(C)(C)SCC,60 to 62
17,CCCCCc1c(-c2ccc3cc(OCc4nnn[nH]4)ccc3c2)n(C)c2ccccc12,120 to 122
18,Cc1cc(C)cc(S(=O)(=O)n2c(CCCC(=O)O)cc3cc(Cl)ccc32)c1,204 to 206
19,CCc1ccc(-c2ccc3c(c2)C=C(C(=O)Nc2ccc(CN(C)C4CCOCC4)cc2)CCN3C)cc1,164 to 165
20,C=CC(=O)Nc1csc(Br)n1,152 to 154
21,CCCCCCCCCCCCCS(=O)c1nc(NC(=O)Nc2c(C(C)C)cccc2C(C)C)n[nH]1 (centres undefined),178 to 181

# Continued, values first:
row,melting point [°C],SMILES
1,155 to 156,Cc1oc(-c2ccccc2)nc1CCOc1ccc(C[C@@H](C(=O)O)n2cccc2)cc1
2,133 to 134,O=C1N(c2ccccc2)CC(CCl)C1(Cl)Cl (centres undefined)
3,> 230,CSc1nn2c(N)cc(C)nc2c1S(=O)(=O)c1ccc2ccccc2c1
4,108 to 111,COC(=O)C(N)Cc1ccc(OCc2nc3ccc(OC)cc3n2C)cc1 (centres undefined)
5,138,Cc1cccc(NC(=O)NCC(=O)N(c2ccccc2)C(C(=O)N2CCCC2)c2ccccc2)c1 (racemic)
6,184 to 186,O=C(NO)c1ccc(C(=O)NOCC2CCc3ccccc3C2)cc1 (centres undefined)
7,238 to 240,O=C(O)c1ccc(-n2sc(-c3ccccc3)cc2=O)cc1
8,172 to 177,CC(C)c1cc(Cl)cc(C(C)C)c1NC(=O)NS(=O)(=O)c1cccc(S(N)(=O)=O)c1
9,234 to 235,CC(C)(O)c1ccc(N2CCN(c3ccncc3)CC2)cc1
10,276 to 277,Cc1sc(C(N)=O)c2c1-c1nn(C)cc1CC2
11,180 to 182,O=C(O)C1CC(c2ccccc2)=NN1 (centres undefined)
12,218 to 220,CCCNC(=S)Nc1ccc(Oc2nc(OC)cc(OC)n2)c(C(=O)OC)n1
13,129 to 131,CCCCc1ccc(C(=O)Cc2ccc(Br)cc2)cc1
14,150 to 151,O=C(O)C1(C(=O)O)CC(C2CCC2)C1
15,182 to 184,Cn1cc(C(=O)NCc2ccc(Cl)cc2)c(=O)c2cc(/C=C\CO)cc(F)c21
16,145 to 147,NC(=O)CN1CC2CCCCCC2C1=O (centres undefined)
17,116 to 122,CN1CCC(O)(CNC=O)CC1

row,melting point [°C],SMILES
1,98 to 99,CCCCCCCCCCCC1CC(O)C(CCCCCC)C(=O)O1 (centres undefined)
2,45 to 46,COc1cc(C)c(CCCCCCCCCCCCCCCC(=O)O)c(O)c1OC
3,208 to 209,O=C(Nc1ccc(F)cc1F)C1C(=O)N2c3ccccc3Sc3cccc1c32 (centres undefined)
4,179 to 180,CNC(=NC#N)NCCCCSc1nccc(NC(N)=NCC(F)(F)F)n1
5,131 to 132,Cc1ccc(C(=O)c2cc(CN(C)CCO)c(O)c(C(C)(C)C)c2)cc1
6,121 to 123,CC[C@@H](NC(=O)N1CC(=O)NC[C@@H](Cc2cc(Cl)ccc2OC)C1=O)c1cccc(C(=O)O)c1
7,229 to 230,Cc1ccc(CC(=O)N[C@H]2C[C@H](C(=O)O)Nc3cc(Cl)cc(Cl)c32)cc1 (relative stereo)
8,169 to 170,NC(=O)CNC(=O)c1cccc(-c2cccc3cc(Cc4cc(F)cc(C(F)(F)F)c4)sc23)c1
9,156 to 158,CC1(C)CC(=O)N(c2ccc(OC(=O)N3CCc4ccccc4C3)nc2)C(=O)C1
10,127 to 137,CC(C)c1ccc(C(=O)C(c2ccccc2)C2CCCCC2)c(C(C)C)c1OS(N)(=O)=O (centres undefined)
11,134,CNc1nc(SC)ncc1C
12,214 to 215,O=C(O)c1cc(Br)ccc1COc1ccc(Br)cc1
13,248 to 250,COc1cc(-c2csc(N)n2)cc([N+](=O)[O-])c1O
14,66 to 68,O=C1CCCc2ccn(-c3ccccc3)c21
15,98 to 99,CSc1ccc(-c2cc(Br)nn2-c2ccc(F)cc2)cc1
16,131 to 132,Nc1cc(C(=O)c2ccc(F)c(N)c2)ccc1F
17,154,CC(C)(CCCCCCCCCCC(C)(C)C(Cl)(Cl)C(=O)O)C(Cl)(Cl)C(=O)O
